Results on four molecules are retold here after article PMC6342301, “Potent, multi-target serine protease inhibition achieved by a simplified β-sheet motif” (PLoS ONE, 2019).

In test [1] the target is T1, KLK7 (Homo sapiens, UniProt P49862).
T1 construct: made in house; host or cells: Pichia pastoris strain X-33
Put plainly: Competitive inhibition assay against KLK7 (KHLY-pNA substrate). The following applies: for Ki: KLK7, substrate KHLY-pNA, Morrison equation. It counts as biochemical. The source says: KLK7 was produced as a zymogen in the yeast Pichia pastoris strain X-33 previously developed and optimised by Dr Maria Brattsand [29]. Expressed proteins were purified using cation exchange chromatography on UnoSphere S (Biorad) and activated by treatment with enterokinase (10 units per milligram purified zymogen; Thermo Fisher Scientific) before a final polishing step to remove enterokinase, again using cation exchange chromatography. The active site concentration of purified KLK7 was determined using the serpin α1- proteinase inhibitor (A1PI) which binds to KLK7 with 1:1 stoichiometry. Briefly, a fixed amount of KLK7 was pre-incubated with a range of inhibitor concentrations at room temperature for 20 min before adding a constant concentration of substrate KHLY-pNA. The residual KLK7 activities were measured as the increase of absorbance at 405 nm for 10 min (ΔOD405/min) and plotted against respective inhibitor concentrations. The active site concentration was determined by linear regression to find the concentration of inhibitor required for complete KLK7 inhibition (ΔOD405/min drops to zero), which is equal to the concentration of KLK7 active site.
Inhibitory property of SFTI inhibitors was assessed by determining the inhibition constant (Ki) in competitive inhibition assays against a range of proteases as described before. Serial dilutions of the inhibitor were pre-incubated with a fix concentration of protease in assay buffer (0.1 M Tris pH 8.0, 0.1 M NaCl and 0.05% Triton X-100) at room temperature for 10 min. Assays were initiated by addition of respective peptide-pNA substrates. Absorbance changes at 405 nm were monitored using a micro plate spectrophotometer (Bio-rad Benchmark Plus) over 5 min. Inhibition constants were calculated in GraphPad Prism 5.01 (La Jolla California, USA) by non-linear regression using the Morrison equation for tight binding inhibitors.

The target of test [2] is KLK14. The settings on record: substrate Ac-YANR-pNA; cited from earlier work.
The target in test [3] is T1, KLK7. On the set-up: method as in PMID 26393374. The following applies: substrate KHLY-pNA; cited from earlier work.
Test [4] addresses Trypsin. The following applies: substrate Ac-YASR-pNA; cited from earlier work.
Test [5] concerns the target KLK5. The settings on record: substrate Ac-YRSR-pNA; cited from earlier work.
The target in test [6] is T1, KLK7. The settings on record: cited from earlier work.

Read-outs that look alike come from different tables or passages of the source. Bridge positions count the residues as written; N and C are the ends. Peptide text beside a SMILES is read from it.

T1 sequence (P49862 30-253): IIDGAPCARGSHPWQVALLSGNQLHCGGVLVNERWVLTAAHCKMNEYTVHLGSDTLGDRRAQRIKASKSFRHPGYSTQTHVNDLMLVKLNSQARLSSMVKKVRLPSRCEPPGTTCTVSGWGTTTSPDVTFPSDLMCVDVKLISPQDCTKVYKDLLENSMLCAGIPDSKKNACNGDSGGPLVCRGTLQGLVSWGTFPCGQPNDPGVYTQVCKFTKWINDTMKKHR

The term Ki denotes a dissociation constant, usually derived from enzyme kinetics or from competition with a known ligand. Consider “SFTI-TCTR: SFTI variant GTCTRSIPPICNPN with four mutations R2T (P4), K5R (P1), F12N, D14N in the cyclic backbone (head-to-tail cyclic backbone)”, for which the “fold increased inhibitory potency against KLK7 compared to SFTI-1” value in test [1] (ratio of Ki values, relative to SFTI-1) stood at 286 fold. Also, the “fold increase in KLK7 inhibitory potency compared to SFTI-RCTR” value in test [1] (ratio of Ki values, relative to SFTI-RCTR) was found to be 13 fold. The Ki in test [2] is 0.4 ± 0.02 nM; in test [3] it was 17 ± 0.4 nM; in test [4] it was 0.7 ± 0.07 nM; in test [5] it was 2 ± 0.1 nM.
In turn, `CC[C@H](C)[C@@H]1NC(=O)[C@@H]2CCCN2C(=O)[C@@H]2CCCN2C(=O)[C@H]([C@@H](C)CC)NC(=O)[C@H](CO)NC(=O)[C@H](CCCNC(=N)N)NC(=O)[C@H]([C@@H](C)O)NC(=O)[C@@H]2CSSC[C@H](NC1=O)C(=O)N[C@@H](Cc1ccccc1)C(=O)N1CCC[C@H]1C(=O)N[C@@H](CC(=O)O)C(=O)NCC(=O)N[C@@H](CCCNC(=N)N)C(=O)N2` [SFTI-RCTR] (cyclo(CFPDGRCTRSIPPI); disulfide 1-7) yielded a Ki in test [1] of 220 ± 6 nM.
Turning to `CC[C@H](C)[C@@H]1NC(=O)[C@@H]2CCCN2C(=O)[C@@H]2CCCN2C(=O)[C@H]([C@@H](C)CC)NC(=O)[C@H](CO)NC(=O)[C@H](CCCCN)NC(=O)[C@H]([C@@H](C)O)NC(=O)[C@@H]2CSSC[C@H](NC1=O)C(=O)N[C@@H](Cc1ccccc1)C(=O)N1CCC[C@H]1C(=O)N[C@@H](CC(=O)O)C(=O)NCC(=O)N[C@@H](CCCNC(=N)N)C(=O)N2` [SFTI-1, Sunflower trypsin inhibitor-1, reference compound], affinity in test [1] was put at a Ki of 4800 ± 200 nM.

B1: recombinant LEKTI fragment comprising domains 8–11: recombinant LEKTI fragment comprising domains 8–11 (protein)
chain: EAAKEICSEFRDQVRNGTLICTREHNPVRGPDGKMHGNKCAMCASVFKLEEEEKKNDKEEKGKVEAEKVKREAVQELCSEYRHYVRNGRLPCTRENDPIEGLDGKIHGNTCSMCEAFFQQEAKEKERAEPRAKVKREAEKETCDEFRRLLQNGKLFCTRENDPVRGPDGKTHGNKCAMCKAVFQKENEERKRKEEEDQRNAAGHGSSGGGGGNTQDECAEYREQMKNGRLSCTRESDPVRDADGKSYNNQCTMCKAKLEREAERKNEY
modifications: intradomain disulfides; check residue is from a known polymorphic site (R711Q), not from the pape
For the molecule B1, in test [6], the Ki was 34.8 nM.
